Measurements reported in ChEMBL document CHEMBL5365420, “Kinetics, Thermodynamics, and Structural Effects of Quinoline-2-Carboxylates, Zinc-Binding Inhibitors of New Delhi Metallo-β-lactamase-1 Re-sensitizing Multidrug-Resistant Bacteria for Carbapenems” (J Med Chem, 2023).

How the values were obtained:
[1] = tested on: Klebsiella pneumoniae; experiment: Antibacterial activity against clinical isolate Klebsiella pneumoniae 50/11 expressing blaNDM-1 co-expressing blaTEM-1/blaSHV-28/blaTEM-1/blaCTX-M-15 and blaOXA-1 assessed as meropenem MIC at 36.44 uM measured after 20 hrs by broth microdilution assay (reference value: 12 mg/L); format: functional
[2] = target: Metallo-beta-lactamase type 2 (Bacteria) (UniProt C7C422)
Description: Binding affinity to C-terminal 6His-tagged full length truncated NDM-1 (unknown origin) expressed in Escherichia coli BL21-DE3 assessed as change in enthalpy in presence of zinc sulfate by isothermal titration calorimetric analysis

[3] = tested on: Escherichia coli; experiment: Antibacterial activity against clinical isolate Escherichia coli K12 J53-ST10 618/15 expressing blaNDM-1 assessed as meropenem MIC at 72.88 uM measured after 20 hrs by broth microdilution assay (reference value: 24 mg/L); format: functional
[4] = tested on: Acinetobacter baumannii; experiment: Antibacterial activity against clinical isolate Acinetobacter baumannii IC 19/09 expressing blaNDM-1 co-expressing blaOXA-64 assessed as meropenem MIC at 36.44 uM measured after 20 hrs by broth microdilution assay (reference value: 12 mg/L); format: functional
[5] = tested on: Escherichia coli; experiment: Antibacterial activity against clinical isolate Escherichia coli K12 J53-ST10 684/18 expressing blaNDM-1 co-expressing blaCMY-2 and blaOXA-10 assessed as meropenem MIC at 36.44 uM measured after 20 hrs by broth microdilution assay (reference value: 12 mg/L); format: functional
[6] = tested on: Klebsiella pneumoniae; experiment: Antibacterial activity against clinical isolate Klebsiella pneumoniae ST1493/10 expressing blaNDM-1 co-expressing blaCMY-2like/blaTEM-1/blaCTX-M-15/blaSHV-28/blaOXA-1 and blaOXA-9 assessed as meropenem MIC at 72.88 uM measured after 20 hrs by broth microdilution assay (reference value: 24 mg/L); format: functional
[7] = target: Metallo-beta-lactamase type 2 (Bacteria) (UniProt C7C422); remark: listed apart in the source
Description: Binding affinity to C-terminal 6His-tagged full length truncated NDM-1 (unknown origin) expressed in Escherichia coli BL21-DE3 assessed as change in enthalpy by isothermal titration calorimetric analysis

[8] = Selectivity ratio of Ki for human recombinant MMP-2 CD to Ki for C-terminal 6His-tagged full length NDM-1 (unknown origin)
[9] = tested on: Klebsiella pneumoniae; experiment: Antibacterial activity against clinical isolate Klebsiella pneumoniae 62/07 expressing blaVIM-19 co-expressing blaSHV-1/blaCTX-M-14 and blaCMY-4 assessed as meropenem MIC at 36.44 uM measured after 20 hrs by broth microdilution assay (reference value: 12 mg/L); format: functional
[10] = tested on: Klebsiella pneumoniae; experiment: Antibacterial activity against clinical isolate Klebsiella pneumoniae 62/07 expressing blaVIM-19 co-expressing blaSHV-1/blaCTX-M-14 and blaCMY-4 assessed as meropenem MIC at 72.88 uM measured after 20 hrs by broth microdilution assay (reference value: 24 mg/L); format: functional
[11] = tested on: Escherichia coli; experiment: Antibacterial activity against clinical isolate Escherichia coli ST1012/10 expressing blaNDM-1 co-expressing blaTEM-1/blaCTX-M-15/blaOXA-1 and blaOXA-2 assessed as meropenem MIC at 72.88 uM measured after 20 hrs by broth microdilution assay (reference value: 24 mg/L); format: functional
[12] = tested on: Klebsiella pneumoniae; experiment: Antibacterial activity against clinical isolate Klebsiella pneumoniae 50/20 expressing blaNDM-5 co-expressing blaTEM-1 and blaSHV-1 assessed as meropenem MIC at 72.88 uM measured after 20 hrs by broth microdilution assay (reference value: 24 mg/L); format: functional
[13] = target: T1, Metallo-beta-lactamase type 2 (Bacteria, UniProt C7C422)
Description: Inhibition of C-terminal 6His-tagged full length NDM-1 (unknown origin) expressed in Escherichia coli BL21-DE3 using nitrocefin as substrate incubated for 15 mins followed by substrate addition by absorbance based microplate reader analysis

[14] = target: Histone deacetylase 1 (Homo sapiens) (UniProt Q13547); experiment: Inhibition of C-terminal 6His/FLAG-tagged human recombinant full-length HDAC1 (1 to 482(end) residues) at 10 uM using Boc-Lys-(Ac)-AMC as substrate incubated for 10 mins followed by substrate addition measured after 1 hr by fluorescence based analysis relative to control; conditions: time 70.0 min
[15] = tested on: Escherichia coli; experiment: Antibacterial activity against clinical isolate Escherichia coli K12 J53-ST10 696/17 expressing blaNDM-1 co-expressing blaCMY-4 assessed as meropenem MIC at 72.88 uM measured after 20 hrs by broth microdilution assay (reference value: 24 mg/L); format: functional
[16] = target: Carbonic anhydrase 2 (Homo sapiens) (UniProt P00918); experiment: Inhibition of human CA2 at 10 uM using pNPA as substrate preincubated for 15 mins followed by substrate by absorbance based analysis relative to control
[17] = tested on: Klebsiella pneumoniae; experiment: Antibacterial activity against clinical isolate Klebsiella pneumoniae 50/20 expressing blaNDM-5 co-expressing blaTEM-1 and blaSHV-1 assessed as meropenem MIC at 36.44 uM measured after 20 hrs by broth microdilution assay (reference value: 12 mg/L); format: functional
[18] = target: T1, Metallo-beta-lactamase type 2; remark: listed apart in the source
Description: Binding affinity to C-terminal 6His-tagged full length biotin-labeled NDM-1 (unknown origin) expressed in Escherichia coli BL21-DE3 assessed as dissociation constant by BLI assay

[19] = tested on: Escherichia coli; experiment: Antibacterial activity against clinical isolate Escherichia coli K12 J53-ST10 684/18 expressing blaNDM-1 co-expressing blaCMY-2 and blaOXA-10 assessed as meropenem MIC at 72.88 uM measured after 20 hrs by broth microdilution assay (reference value: 24 mg/L); format: functional
[20] = target: Metallo-beta-lactamase type 2 (Bacteria) (UniProt C7C422); remark: listed apart in the source
[21] = Inhibition of GIM1 (unknown origin) incubated for 15 mins by absorbance based microplate reader analysis; set-up: species or system Bacteria
[22] = tested on: Klebsiella pneumoniae; experiment: Antibacterial activity against clinical isolate Klebsiella pneumoniae ST23213/19 expressing blaNDM-1 co-expressing blaOXA-48/blaSHV-11/blaCTX-M-15 and blaOXA-1 assessed as meropenem MIC at 36.44 uM measured after 20 hrs by broth microdilution assay (reference value: 12 mg/L); format: functional
[23] = tested on: Escherichia coli; experiment: Antibacterial activity against clinical isolate Escherichia coli K12 J53-ST10 699/15 expressing blaNDM-1 assessed as meropenem MIC at 36.44 uM measured after 20 hrs by broth microdilution assay (reference value: 12 mg/L); format: functional
[24] = tested on: Klebsiella pneumoniae; experiment: Antibacterial activity against clinical isolate Klebsiella pneumoniae ST1493/10 expressing blaNDM-1 co-expressing blaCMY-2like/blaTEM-1/blaCTX-M-15/blaSHV-28/blaOXA-1 and blaOXA-9 assessed as meropenem MIC at 36.44 uM measured after 20 hrs by broth microdilution assay (reference value: 12 mg/L); format: functional
[25] = tested on: Acinetobacter baumannii; experiment: Antibacterial activity against clinical isolate Acinetobacter baumannii IC 19/09 expressing blaNDM-1 co-expressing blaOXA-64 assessed as meropenem MIC at 72.88 uM measured after 20 hrs by broth microdilution assay (reference value: 24 mg/L); format: functional
[26] = tested on: Escherichia coli; experiment: Antibacterial activity against clinical isolate Escherichia coli K12 J53-ST10 618/15 expressing blaNDM-1 assessed as meropenem MIC at 36.44 uM measured after 20 hrs by broth microdilution assay (reference value: 12 mg/L); format: functional
[27] = target: Metallo-beta-lactamase type 2 (Bacteria) (UniProt C7C422); remark: listed apart in the source
Description: Binding affinity to C-terminal 6His-tagged full length truncated NDM-1 (unknown origin) expressed in Escherichia coli BL21-DE3 assessed as change in entropy by isothermal titration calorimetric analysis

[28] = tested on: Escherichia coli; experiment: Antibacterial activity against clinical isolate Escherichia coli K12 J53-ST10 699/15 expressing blaNDM-1 assessed as meropenem MIC at 72.88 uM measured after 20 hrs by broth microdilution assay (reference value: 24 mg/L); format: functional

Sequence of Metallo-beta-lactamase type 2 (Bacteria) (C7C422 whole entry): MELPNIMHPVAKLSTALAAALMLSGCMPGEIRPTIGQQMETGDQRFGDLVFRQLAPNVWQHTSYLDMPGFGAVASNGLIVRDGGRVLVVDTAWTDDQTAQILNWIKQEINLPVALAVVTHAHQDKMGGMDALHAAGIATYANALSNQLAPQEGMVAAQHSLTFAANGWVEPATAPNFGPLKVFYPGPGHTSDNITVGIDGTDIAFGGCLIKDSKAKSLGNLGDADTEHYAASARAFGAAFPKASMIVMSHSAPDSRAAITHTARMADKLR
T1 sequence (C7C422 whole entry): as above
Sequence of Histone deacetylase 1 (Homo sapiens) (Q13547 whole entry): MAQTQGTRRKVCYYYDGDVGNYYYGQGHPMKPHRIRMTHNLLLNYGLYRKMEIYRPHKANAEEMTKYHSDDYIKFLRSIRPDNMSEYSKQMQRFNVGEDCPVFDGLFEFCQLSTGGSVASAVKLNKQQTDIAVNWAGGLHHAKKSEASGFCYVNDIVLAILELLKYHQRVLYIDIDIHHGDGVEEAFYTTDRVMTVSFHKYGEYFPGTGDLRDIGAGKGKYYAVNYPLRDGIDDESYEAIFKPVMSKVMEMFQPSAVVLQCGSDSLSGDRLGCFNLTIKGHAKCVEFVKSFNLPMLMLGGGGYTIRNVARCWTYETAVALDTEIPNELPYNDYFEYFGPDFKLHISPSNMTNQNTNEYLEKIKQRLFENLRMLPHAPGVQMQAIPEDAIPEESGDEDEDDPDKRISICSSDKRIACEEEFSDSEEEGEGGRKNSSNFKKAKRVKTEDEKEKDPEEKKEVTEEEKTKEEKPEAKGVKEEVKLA

## O=C(O)c1ccc2cccc(NS(=O)(=O)c3ccccn3)c2n1
[1]
  MIC: ≤ 0.125 µg/mL
[2]
  deltaH: -26.5 kcal/mol
[3]
  MIC: ≤ 0.125 µg/mL
[4]
  MIC: 4 µg/mL
[5]
  MIC: ≤ 0.125 µg/mL
[6]
  MIC: 1 µg/mL
[7]
  deltaH: -6.6 kcal/mol
[8]
  Ratio Ki: 40
[9]
  MIC: 2 µg/mL
[10]
  MIC: 0.25 µg/mL
[11]
  MIC: ≤ 0.125 µg/mL
[12]
  MIC: ≤ 0.125 µg/mL
[13]
  IC50: 290 nM
[14]
  inhibition: < 5%
[15]
  MIC: ≤ 0.125 µg/mL
[16]
  inhibition: < 5%
[17]
  MIC: 0.5 µg/mL
[18]
  Kd: 14100 nM
[19]
  MIC: ≤ 0.125 µg/mL
[20]
  ΔTm: 15 °C
[21]
  IC50: 650 nM
[22]
  MIC: 16 µg/mL
[23]
  MIC: 0.5 µg/mL
[24]
  MIC: 2 µg/mL
[25]
  MIC: 1 µg/mL
[26]
  MIC: ≤ 0.125 µg/mL
[27]
  -TdeltaS: -2.92 kcal/mol
[28]
  MIC: ≤ 0.125 µg/mL
